Where a SMILES comes first, the peptide text is derived from it. [ ]: non-standard residue; d: D form. The star is where a group is joined. ξ: configuration not given here. NOTA = O=C(O)CN1CCN(CC(=O)O)CCN(CC(=O)*)CC1; Oic = O=C(O)[C@@H]1C[C@@H]2CCCC[C@@H]2N1; d2Nal = N[C@H](Cc1ccc2ccccc2c1)C(=O)O; αMeF = C[C@](N)(Cc1ccccc1)C(=O)O; ξαMeF = CC(N)(Cc1ccccc1)C(=O)O; Orn = NCCC[C@H](N)C(=O)O; βAla = NCCC(=O)O
Tests used:
[1] = target: T1, human B1R (Homo sapiens, UniProt P46663); assay: human bioassay using isolated human umbilical veins, B1R; format: cell-based; conditions: versus the βAla-linked compound
T1 construct: It particularly expresses both kinin B1R and B2R at physiological densities; from tissue; host or cells: isolated human umbilical vein
T1 sequence (P46663 1-353): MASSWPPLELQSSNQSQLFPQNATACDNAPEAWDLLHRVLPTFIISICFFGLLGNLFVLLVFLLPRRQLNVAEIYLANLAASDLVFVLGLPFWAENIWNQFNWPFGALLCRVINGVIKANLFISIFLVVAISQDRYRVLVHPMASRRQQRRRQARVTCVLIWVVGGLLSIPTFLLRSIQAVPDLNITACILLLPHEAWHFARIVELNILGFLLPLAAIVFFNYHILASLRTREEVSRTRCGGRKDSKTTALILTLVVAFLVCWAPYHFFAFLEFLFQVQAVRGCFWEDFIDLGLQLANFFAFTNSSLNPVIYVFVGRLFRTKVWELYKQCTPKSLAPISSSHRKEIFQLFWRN
From the text: The apparent affinity constants (or potency) of kinin agonist and antagonist analogues for human B1R were estimated by in vitro human bioassay using isolated human umbilical veins (Gobeil et al., 1996, supra; Côté et al., 2009, supra). […] It particularly expresses both kinin B1R and B2R at physiological densities. Apparent affinities of peptides were defined in terms of EC50 (pD2) values for agonists and IC50 values for antagonists.

[2] = test system: cancer cells; assay: cytotoxicity of B1R radionuclide therapy by clonogenic assays; format: cell-based; conditions: non-radioactive surrogate up to 10 μM
Description: Cytotoxicity of B1R radionuclide therapy was assessed in cancer cells by clonogenic assays. […] Then, media were removed and colonies fixed/stained with 0.5% methylene blue in 50% ethanol, rinsed with tap water and air dried. Colony counting was performed manually or automatically using the Image Pro Plus 5.1.

[3] = test system: F98 GBM; assay: small animal PET imaging, Fischer/F98 malignant glioma model; format: in vivo, rat; conditions: intravenous, F98 GBM-bearing rats
Description: The F98 GBM cell line (#CRL-2397) was purchased from American Type Culture Collection (ATCC). Cells were cultured as monolayers in Dulbecco's modified Eagle medium (DMEM) supplemented with 10% fetal bovine serum (FBS) and 1% penicillin-streptomycin mixture at 37° C. in a humidified 5% CO2/95% air incubator. The procedure of F98 glioma cell implantation was similar to that used in our previous studies (Côté et al., 2010, Neuropeptides, 44:177-185). […] All tumor transplantations were successful as determined by histology and/or MRI.
PET scans were performed using a LabPET8 (Gamma Medica Inc.) small animal scanner with an axial field of view of 8 cm. […] PET scans were assessed 1 h and 20 h post-injections. […] Regions of interest were traced for tumor, normal brain, heart, liver, kidney, and muscle, and the activity in each organ was measured and reported to the injected dose for percentages calculation. […] In vivo testing of the novel kinin PET radiotracers was also assessed in a model of tumor metastasis induced by the intracardiac injection of 4T1/luc (bioluminescent) mouse breast cancer cells under ultrasound guidance.

[4] = test system: 4T1/luc metastases; assay: PET and bioluminescence imaging, 4T1/luc mouse mammary tumor metastasis model; format: in vivo; conditions: 4T1/luc mouse model
Description: PET scans were performed using a LabPET8 (Gamma Medica Inc.) small animal scanner with an axial field of view of 8 cm. F98 GBM bearing rats were injected with 74 MBq (2 mCi; 100 μL) of novel ^64Cu radiolabeled B1R peptides (agonist or antagonist) with via the caudal vein under isoflurane anesthesia. PET scans were assessed 1 h and 20 h post-injections. […] The images were reconstructed by a three dimensional MLEM algorithm implementing an analytically derived system matrix (Selivanov et al., 2000, Nuclear Science, IEEE Transactions on, 47: 1168-1175). Regions of interest were traced for tumor, normal brain, heart, liver, kidney, and muscle, and the activity in each organ was measured and reported to the injected dose for percentages calculation. […] In vivo testing of the novel kinin PET radiotracers was also assessed in a model of tumor metastasis induced by the intracardiac injection of 4T1/luc (bioluminescent) mouse breast cancer cells under ultrasound guidance.

[5] = test system: F98 GBM; assay: peptide receptor radionuclide therapy (PRRT), survival of F98 GBM-bearing rats; format: in vivo; conditions: single intravenous treatment 7.5 mCi/rat, day 10 post-inoculation
[6] = test system: human solid tumors (e.g., brain and prostate) expressing naturally-occurring native B1R; assay: PET imaging of solid tumors expressing native B1R (LN-CaP tumor-bearing nude mouse, F98); format: in vivo
Description: FIGS. 4A-C illustrate in vitro cell uptake and anticancer activity of ^64Cu-NOTA-βAla-Orn^1-Arg^2-Oic^3-Pro^4-Gly^5-(αMe)Phe^6-Ser^7-DβNal^8-Ile^9-OH; ^64Cu-NOTA-B1RA) (SEQ ID NO: 6) in human prostate cancer cells (PC3 and LN-CaP). Cell uptake of ^64Cu-Nota-B1RA (in the presence or not of competitor R954) in PC3 cells measured at 20 h post-treatment by radiometric assays (A). Dose-dependent antiproliferative effects of ^64Cu-acetate and ^64Cu/Nota-B1RA on PC3 cells (B) and LN-CaP cells (C), assessed by clonogenic assays. FIG. 4 D illustrates the molecular imaging of prostate cancer with ^64Cu/Nota-B1RA. PET images of LN-CaP tumor-bearing nude mouse obtained after injection of 64Cu/Nota-B1RA (9 MBq) at 0.5 h post-injection (p.i.). […] FIG. 4F confirms the immunohistochemical (IHC) overexpression of B1R in tumoral tissues of LNCaP-bearing mice (blackiste dark-color).
FIGS. 5A-C illustrate in vitro cellular/nuclear uptake and anticancer activity of ^64Cu-NOTA-βAla-Orn^1-Arg^2-Oic^3-Pro^4-Gly^5-(αMe)Phe^6-Ser^7-DβNal^8-Ile^9-OH (Cu/Nota-B1RA) (SEQ ID NO: 6) in F98 GBM cells. Cell uptake and nuclear localization of non-radioactive, free Cu and Cu/Nota-B1RA in F98 glioma cells measured at 20 h post-treatment by ICP-MS (A). Dose-dependent antiproliferative effects of ^64Cu-acetate, ^64Cu/Nota-B1RA on F98 wildtype (B) or shRNA-B1R knockdown F98 cells (C) using clonogenic assays. […]

[7] = rat
Description: For in vivo stability studies in normal healthy rats and mice, peptide was reconstituted in PBS and 20-30 MBq (500-800 μCi; 100 μL) were injected through the tail vein to isoflurane anesthetized animals. At different times post-injection, blood and urine were collected, centrifuged and followed by a protein precipitation with acetonitrile. Samples were analyzed by UPLC using a C-18 column and a radio-detector. Analysis and retention times were compared to the original radiolabeled peptide to monitor peptide cleavage.

[8] = test system: brain tumor cells and other types of cancer cells (e.g., breast and prostate); assay: cellular and nuclear uptake of Cu (ICP-MS / radiometric assays); format: cell-based
Description: Cellular uptake profiles of non-radioactive Cu-acetate and Cu-labeled peptides in B1R expressing rat F98 GBM cells were evaluated by ICP-MS analysis. Brain cancer cells were allowed to grow to confluence on a 10-cm dish. Cells were then incubated with Cu-acetate or Cu-labeled peptides (500 nM) in FBS free-DMEM at 37° C. for 15 min or 1, 4, or 20 h, respectively. For determination of nonspecific internalization, one set of dishes was incubated with the potent B1R antagonist R-954 (1 μM) at 37° C. for 10 min to block B1R prior to incubation with Cu-labeled peptides. At each time point, media was collected, and cells were acid-washed once (50 mM acetic acid/250 mM NaCl pH 2.5), to remove surface-bound fractions, and then washed twice with Phosphate-buffered saline (PBS, pH 7.4). Thereafter, cells were trypsinized, collected by centrifugation and gently washed with Hank's buffered salt solution (HBSS). Cells were solubilized in 1/1 nitric acid/30% H2O2 solution, and the amount of Cu was determined by ICP-MS. […]
Irradiating DNA is an effective way to injure and eventually kill cells. […] Pelleted cell-free nuclei were resuspended in 0.5 ml of hypotonic buffer, counted and finally solubilized in 1/1 nitric acid/30% H2O2 solution. […] Quantification of Cu content in the nuclear fractions was done by ICP-MS.

[9] = test system: F98 GBM; assay: ex vivo biodistribution in F98 GBM-bearing rats; parameters: species or system rat
Description: Ex vivo biodistribution studies were performed by injecting 74 MBq (2 mCi/rat; 100 μL of ^64Cu-NOTA-βAla-Orn^1-Arg^2-Oic^3-Pro^4-Gly^5-(αMe)Phe^6-Ser^7-DβNal^8-Ile^9-OH (SEQ ID NO: 6) to isoflurane-anesthetized normal (non-implanted) or F98 bearing rats via the caudal vein. After 1 and 20 h post-injection, the animals were euthanized by CO2 inhalation. Organs of interest were further collected, weighed, and measured in a gamma-counter (Cobra II auto-gamma counter, Packard, Minn.). The results were expressed as percentage of the injected dose per gram of tissue (% ID/g). Specificity of brain tumor uptake of B1R radiotracers was determined by pre-administration of 1 mg/kg of R954 peptide (5 min prior the injection of the radiolabelled peptide) and using sham-operated contralaterals. Animals bearing B1R target knockdowns were also employed to further support specificity of brain tumor uptake. Experiments were realized with a minimum of 3 rats per group.

CC[C@H](C)[C@H](NC(=O)[C@@H](Cc1ccc2ccccc2c1)NC(=O)[C@H](CO)NC(=O)C(C)(Cc1ccccc1)NC(=O)CNC(=O)[C@@H]1CCCN1C(=O)[C@@H]1C[C@@H]2CCCC[C@@H]2N1C(=O)[C@H](CCCNC(=N)N)NC(=O)[C@H](CCCN)NC(=O)CN1CCN(CC(=O)O)CCN(CC(=O)O)CC1)C(=O)O (stereo partly shown) [Cu-NOTA-Orn^1-Arg^2-Oic^3-Pro^4-Gly^5-(αMe)Phe^6-Ser^7-DβNal^8-Ile^9-OH] ({NOTA}-[Orn]R[Oic]PG[ξαMeF]S[d2Nal]I-OH; N-terminus assumed)
decrease in affinity to hB1R in absence of linker [1]: 10 fold

CC[C@H](C)[C@H](NC(=O)[C@@H](Cc1ccc2ccccc2c1)NC(=O)[C@H](CO)NC(=O)C(C)(Cc1ccccc1)NC(=O)CNC(=O)[C@@H]1CCCN1C(=O)[C@@H]1C[C@@H]2CCCC[C@@H]2N1C(=O)[C@H](CCCNC(=N)N)NC(=O)[C@H](CCCN)NC(=O)CCNC(=O)CN1CCN(CC(=O)O)CCN(CC(=O)O)CC1)C(=O)O (stereo partly shown) [Cu-NOTA-βAla-Orn^1-Arg^2-Oic^3-Pro^4-Gly^5-(αMe)Phe^6-Ser^7-DβNal^8-Ile^9-OH] ({NOTA-βAla}-[Orn]R[Oic]PG[ξαMeF]S[d2Nal]I-OH; N-terminus assumed)
anticancer activity / therapeutic efficacy [2]: not seen

CC(=O)[O-].CC(=O)[O-].[64Cu+2] [^64Cu-acetate, reference compound]
anticancer activity / therapeutic efficacy [2]: not seen

^64Cu-NOTA-βAla-DLys^1-Arg^2-Pro^3-Pro^4-Gly^5-Phe^6-Ser^7-Pro^8-DPhe^9-OH (AKRPPGFSPF; 64Cu-NOTA-betaAla N-terminal; D-Lys1, D-Phe9; SITE (1)...(1) beta-alanine; SITE (2)...(2) D-lysine; SITE (10)...(10) D-phenylalanine)
detection of brain tumors by μPET [3]: properly detected relatively small brain tumors

^64Cu-NOTA-βAla-Orn^1-Arg^2-Oic^3-Pro^4-Gly^5-(αMe)Phe^6-Ser^7-DβNal^8-Ile^9-OH ({NOTA}-[βAla][Orn]R[Oic]PG[αMeF]S[d2Nal]I-OH; also: 64Cu complexed by NOTA)
anticancer activity / therapeutic efficacy [2]: enhanced anticancer activity
PET signal localization versus bioluminescent signals [4]: colocalized with bioluminescent signals from (bone) metastases
survival with PRRT [5]: tendency of prolonging survival
detection of brain tumors by μPET [3]: properly detected relatively small brain tumors
non-invasive detection of solid tumors [6]: capacity to identify or detect non-invasively and rapidly human solid tumors
in vivo stability [7]: no degradation sign
elimination (pharmacokinetics) ([7]; in vivo): largely eliminated by the kidneys in urine as intact form
cellular localization [8]: localize both in cytoplasmic and nuclear compartment
brain tumor uptake, ex vivo biodistribution [9]: significant amount of brain tumor uptake

— patent publication US11213597B2, “Kinin-based theranostic probes for solid cancers and uses thereof” (SOCIETE DE COMMERCIALISATION DES PRODUITS DE LA RECHERCHE …, priority 2015, dated 2022)
